Results from PubChem BioAssay AID256 (DTP/NCI, 2004).
“And” between values parts separate entries of the source, which are not always exact repeats. Identical values can stand only once. Inconclusive results and toxic doses are left out.

Tested on: CD2F1 mice, L1210 leukemia ip, survival T/C
Test: NCI In Vivo Anticancer Drug Screen. Data for tumor model L1210 Leukemia (intraperitoneal) in CD2F1 (CDF1) mice
Conditions: higher = longer survival
Outline: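 Antitumor effect is scored in animals hosting a serially transplanted tumor. Values compare compound-dosed animals against vehicle-only controls as a simple quotient.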

[1] = endpoint: mean survival time, dose: 100.0 mg/kg/injection, schedule: Q01DX001 (ip), vehicle: saline
[2] = endpoint: mean survival time, dose: 100.0 mg/kg/injection, schedule: Q04DX003 (ip), vehicle: saline with Tween-80
[3] = endpoint: mean survival time, dose: 200.0 mg/kg/injection, schedule: Q04DX003 (ip), vehicle: saline with Tween-80
[4] = endpoint: mean survival time, dose: 400.0 mg/kg/injection, schedule: Q04DX003 (ip), vehicle: saline with Tween-80
[5] = endpoint: mean survival time, dose: 75.0 mg/kg/injection, schedule: Q01DX001 (ip), vehicle: saline
[6] = endpoint: mean survival time, dose: 150.0 mg/kg/injection, schedule: Q01DX001 (ip), vehicle: saline
[7] = endpoint: mean survival time, dose: 50.0 mg/kg/injection, schedule: Q01DX009 (ip), vehicle: Klucel (hydroxypropylcellulose) (HPC)
[8] = endpoint: mean survival time, dose: 100.0 mg/kg/injection, schedule: Q01DX009 (ip), vehicle: Klucel (hydroxypropylcellulose) (HPC)
[9] = endpoint: mean survival time, dose: 100.0 mg/kg/injection, schedule: Q01DX009 (ip), vehicle: saline with Tween-80
[10] = endpoint: mean survival time, dose: 200.0 mg/kg/injection, schedule: Q01DX009 (ip), vehicle: saline with Tween-80
[11] = endpoint: mean survival time, dose: 400.0 mg/kg/injection, schedule: Q01DX009 (ip), vehicle: saline with Tween-80
[12] = endpoint: mean survival time, dose: 50.0 mg/kg/injection, schedule: Q01DX009 (ip), vehicle: saline with Tween-80
[13] = endpoint: mean survival time, dose: 100.0 mg/kg/injection, schedule: Q01DX009 (ip), vehicle: saline
[14] = endpoint: mean survival time, dose: 200.0 mg/kg/injection, schedule: Q01DX009 (ip), vehicle: saline

SMILES: CC(=O)N(C)N=Nc1ccc([N+](=O)[O-])cc1
- T/C (endpoint: mean survival time, dose: 25.0 mg/kg/injection, schedule: Q04DX003 (ip), vehicle: Klucel (hydroxypropylcellulose) (HPC)): 103 % of control
- T/C (endpoint: mean survival time, dose: 50.0 mg/kg/injection, schedule: Q04DX003 (ip), vehicle: Klucel (hydroxypropylcellulose) (HPC)): 103 % of control
- T/C (endpoint: mean survival time, dose: 100.0 mg/kg/injection, schedule: Q04DX003 (ip), vehicle: Klucel (hydroxypropylcellulose) (HPC)): 97 % of control
- T/C (endpoint: mean survival time, dose: 200.0 mg/kg/injection, schedule: Q04DX003 (ip), vehicle: Klucel (hydroxypropylcellulose) (HPC)): 114 % of control

SMILES: O=c1[nH]c(-c2ccccc2)nc(-c2ccccc2)c1Cc1cc2c(cc1O)OCC2
- T/C [1]: 103 % of control
- T/C (endpoint: mean survival time, dose: 200.0 mg/kg/injection, schedule: Q01DX001 (ip), vehicle: saline): 92 % of control
- T/C (endpoint: mean survival time, dose: 400.0 mg/kg/injection, schedule: Q01DX001 (ip), vehicle: saline): 92 % of control

SMILES: COc1ccc(CNC(C)(C#N)c2ccccc2)cc1OC (stereo not given)
- T/C [2]: 107 % of control
- T/C [3]: 93 % of control
- T/C [4]: 98 % of control

SMILES: CC([NH-])CC(C)[NH-].O=C(O)C(=O)O.[Pt+2] (stereo not given)
- T/C (endpoint: mean survival time, dose: 12.5 mg/kg/injection, schedule: Q04DX003 (ip), vehicle: saline with Tween-80): 169 % of control
- T/C (endpoint: mean survival time, dose: 12.5 mg/kg/injection, schedule: Q04DX003 (ip), vehicle: saline): 156 % of control
- T/C (endpoint: mean survival time, dose: 25.0 mg/kg/injection, schedule: Q04DX003 (ip), vehicle: saline with Tween-80): 100 % of control
- T/C (endpoint: mean survival time, dose: 25.0 mg/kg/injection, schedule: Q04DX003 (ip), vehicle: saline): 186 % of control

SMILES: CCC1c2ccc3cc(O)ccc3c2CCC1(C)C(=O)OC (stereo not given)
- T/C (endpoint: mean survival time, dose: 50.0 mg/kg/injection, schedule: Q01DX001 (ip), vehicle: Klucel (hydroxypropylcellulose) (HPC)): 96 % of control
- T/C (endpoint: mean survival time, dose: 100.0 mg/kg/injection, schedule: Q01DX001 (ip), vehicle: Klucel (hydroxypropylcellulose) (HPC)): 96 % of control
- T/C (endpoint: mean survival time, dose: 200.0 mg/kg/injection, schedule: Q01DX001 (ip), vehicle: Klucel (hydroxypropylcellulose) (HPC)): 104 % of control

SMILES: CN(C)CCNCc1ccc2c(c1)OCO2
- T/C (endpoint: mean survival time, dose: 25.0 mg/kg/injection, schedule: Q01DX001 (ip), vehicle: saline): 102 % of control
- T/C (endpoint: mean survival time, dose: 50.0 mg/kg/injection, schedule: Q01DX001 (ip), vehicle: saline): 102 % of control
- T/C [1]: 102 % of control

SMILES: CSc1[nH]c2ncnc(Cl)c2c1C#N
- T/C [5]: 100 % of control
- T/C [6]: 94 % of control

SMILES: O=C1c2ccccc2C(=O)N1Cc1cc([N+](=O)[O-])ccc1Cl
- T/C [7]: 92 % of control
- T/C [8]: 94 % of control
- T/C (endpoint: mean survival time, dose: 200.0 mg/kg/injection, schedule: Q01DX009 (ip), vehicle: Klucel (hydroxypropylcellulose) (HPC)): 90 % of control

SMILES: Cc1ccc(S(=O)(=O)N(C)c2cc([N+](=O)[O-])ccc2Br)cc1
- T/C (endpoint: mean survival time, dose: 100.0 mg/kg/injection, schedule: Q04DX002 (ip), vehicle: saline with Tween-80): 95 % of control
- T/C (endpoint: mean survival time, dose: 200.0 mg/kg/injection, schedule: Q04DX002 (ip), vehicle: saline with Tween-80): 103 % of control
- T/C (endpoint: mean survival time, dose: 400.0 mg/kg/injection, schedule: Q04DX002 (ip), vehicle: saline with Tween-80): 114 % of control

SMILES: O=C(O)c1ccccc1N=Cc1ccccc1O
- T/C [9]: 96 % of control
- T/C [2]: 103 % of control
- T/C [10]: 96 % of control
- T/C [3]: 113 % of control
- T/C [11]: 102 % of control
- T/C [4]: 105 % of control

SMILES: CCCCCCCCCCCCCCBr
- T/C [12]: 96 % of control
- T/C [9]: 103 % of control
- T/C [10]: 96 % of control

SMILES: O=c1c(Br)cocc1Br
- T/C (endpoint: mean survival time, dose: 100.0 mg/kg/injection, schedule: Q04DX003 (ip), vehicle: saline sonified): 104 % of control
- T/C (endpoint: mean survival time, dose: 200.0 mg/kg/injection, schedule: Q04DX003 (ip), vehicle: saline sonified): 102 % of control
- T/C (endpoint: mean survival time, dose: 400.0 mg/kg/injection, schedule: Q04DX003 (ip), vehicle: saline sonified): 102 % of control

SMILES: CC1=NCCc2c1cc1c([nH]c3ccccc31)c2C
- T/C (endpoint: mean survival time, dose: 44.0 mg/kg/injection, schedule: Q01DX009 (ip), vehicle: saline with Tween-80): 114 % of control
- T/C (endpoint: mean survival time, dose: 67.0 mg/kg/injection, schedule: Q01DX009 (ip), vehicle: saline with Tween-80): 96 % of control

SMILES: CCCCCCCCN(C)S(=O)(=O)CCCC
- T/C (endpoint: mean survival time, dose: 6.25 mg/kg/injection, schedule: Q01DX009 (ip), vehicle: water): 103 % of control
- T/C (endpoint: mean survival time, dose: 12.5 mg/kg/injection, schedule: Q01DX009 (ip), vehicle: water): 95 % of control
- T/C (endpoint: mean survival time, dose: 25.0 mg/kg/injection, schedule: Q01DX009 (ip), vehicle: water): 106 % of control
- T/C (endpoint: mean survival time, dose: 50.0 mg/kg/injection, schedule: Q01DX009 (ip), vehicle: water): 111 % of control
- T/C (endpoint: mean survival time, dose: 100.0 mg/kg/injection, schedule: Q01DX009 (ip), vehicle: water): 103 % of control

SMILES: OC(Cc1nc(-c2ccccc2)c(-c2ccccc2)s1)(C(F)(F)F)C(F)(F)F
- T/C [9]: 95 % of control
- T/C [2]: 91 % of control
- T/C [10]: 101 % of control
- T/C [3]: 95 % of control
- T/C [11]: 86 % of control
- T/C [4]: 89 % of control

SMILES: Clc1ccc(C#Cc2ccc(Cl)cc2)cc1
- T/C (endpoint: mean survival time, dose: 75.0 mg/kg/injection, schedule: Q01DX001 (ip), vehicle: other): 103 % of control
- T/C [2]: 100 % of control
- T/C (endpoint: mean survival time, dose: 150.0 mg/kg/injection, schedule: Q01DX001 (ip), vehicle: other): 94 % of control
- T/C (endpoint: mean survival time, dose: 300.0 mg/kg/injection, schedule: Q01DX001 (ip), vehicle: other): 88 % of control
- T/C [4]: 87 % of control

SMILES: C=CC1(C)CC(=O)C2(O)C(C)(O1)C(OC(C)=O)C(O)C1C(C)(C)CCC(O)C12C (stereo not given)
- T/C (endpoint: median survival time, dose: 4.0 mg/kg/injection, schedule: Q01DX005 (ip), vehicle: other): 98 % of control
- T/C (endpoint: median survival time, dose: 8.0 mg/kg/injection, schedule: Q01DX005 (ip), vehicle: other): 101 % of control
- T/C (endpoint: median survival time, dose: 16.0 mg/kg/injection, schedule: Q01DX005 (ip), vehicle: other): 93 % of control

SMILES: NC(N)=NNC(=O)C(=O)O
- T/C [13]: 98 % of control
- T/C [14]: 110 % of control
- T/C (endpoint: mean survival time, dose: 400.0 mg/kg/injection, schedule: Q01DX009 (ip), vehicle: saline): 100 % of control

SMILES: NNC(=O)CCCCC(=O)NN
- T/C (endpoint: mean survival time, dose: 100.0 mg/kg/injection, schedule: Q04DX003 (ip), vehicle: saline): 97 % of control
- T/C (endpoint: mean survival time, dose: 200.0 mg/kg/injection, schedule: Q04DX003 (ip), vehicle: saline): 100 % of control
- T/C (endpoint: mean survival time, dose: 400.0 mg/kg/injection, schedule: Q04DX003 (ip), vehicle: saline): 99 % of control

SMILES: Cc1ccc(S(=O)(=O)N(O)c2ccccc2)cc1
- T/C [2]: 100 % of control
- T/C [3]: 100 % of control
- T/C [4]: 103 % of control

SMILES: O=C1C2CC=CC2C1(Cl)Cl (stereo not given)
- T/C [5]: 91 % of control
- T/C [6]: 94 % of control
- T/C (endpoint: mean survival time, dose: 300.0 mg/kg/injection, schedule: Q01DX001 (ip), vehicle: saline): 91 % of control

SMILES: O=CNc1ccc([N+](=O)[O-])cc1
- T/C [9]: 101 % of control
- T/C [10]: 94 % of control
- T/C [11]: 91 % of control

SMILES: O=C1N=C(Oc2ccccc2)SC1=O
- T/C (endpoint: mean survival time, dose: 12.5 mg/kg/injection, schedule: Q01DX009 (ip), vehicle: saline with Tween-80): 95 % of control and 104 % of control
- T/C (endpoint: mean survival time, dose: 25.0 mg/kg/injection, schedule: Q01DX009 (ip), vehicle: saline with Tween-80): 116 % of control and 101 % of control
- T/C [12]: 103 % of control and 106 % of control
- T/C [9]: 97 % of control and 101 % of control
- T/C [10]: 90 % of control

SMILES: CCOC(=O)CC(C)(C)NCc1ccccc1
- T/C (endpoint: mean survival time, dose: 25.0 mg/kg/injection, schedule: Q01DX009 (ip), vehicle: Klucel (hydroxypropylcellulose) (HPC)): 91 % of control
- T/C [7]: 97 % of control
- T/C [8]: 91 % of control

SMILES: O/N=C(\CN1CCOCC1)c1ccc(Cl)cc1
- T/C (endpoint: mean survival time, dose: 50.0 mg/kg/injection, schedule: Q01DX009 (ip), vehicle: saline): 107 % of control
- T/C [13]: 96 % of control
- T/C [14]: 103 % of control

SMILES: CC(=O)OC1CCC2(C)C(=CCC3C2CCC2(C)C(OC(=O)c4ccccc4)CCC32)C1 (stereo not given)
- T/C (endpoint: mean survival time, dose: 100.0 mg/kg/injection, schedule: Q04DX003 (ip), vehicle: acetone): 104 % of control
- T/C (endpoint: mean survival time, dose: 200.0 mg/kg/injection, schedule: Q04DX003 (ip), vehicle: acetone): 90 % of control
- T/C (endpoint: mean survival time, dose: 400.0 mg/kg/injection, schedule: Q04DX003 (ip), vehicle: acetone): 86 % of control
